According to patent publication US20250270208A1, “BICYCLIC HETEROCYCLES AS MRGPRX2 ANTAGONISTS” (Incyte Corporation, priority 2023, published 2025):

What was measured:
Format in all cases: cell-based
[1] = target: T1, MRGPRX2 (Homo sapiens, UniProt Q96LB1); test: MRGPRX2 FLIPR calcium mobilization assay; design: host or cells: CHO-K1; settings: CHO-K1 cells stably expressing human MRGPRX2; Ca2+ release; agonist Cortistatin-14 at EC80
T1 sequence (Q96LB1 1-330): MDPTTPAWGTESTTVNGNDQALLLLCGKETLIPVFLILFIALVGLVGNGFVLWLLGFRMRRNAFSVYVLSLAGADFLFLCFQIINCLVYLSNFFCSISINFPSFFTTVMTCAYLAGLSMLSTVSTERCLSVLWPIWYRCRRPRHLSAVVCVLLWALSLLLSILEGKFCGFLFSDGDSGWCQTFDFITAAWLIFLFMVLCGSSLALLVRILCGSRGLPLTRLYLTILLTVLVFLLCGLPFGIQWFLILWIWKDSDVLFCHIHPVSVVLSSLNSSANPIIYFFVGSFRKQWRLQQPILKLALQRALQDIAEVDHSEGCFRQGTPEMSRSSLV
Method: Chinese hamster ovary (CHO-K1) cells stably expressing human MRGPRX2 were purchased from Genescript (Piscataway, NJ). The cells were maintained in culture medium (Ham's F-12K) containing 10% (v/v) FBS, 200 μg/mL Zeocin, 100 units/mL penicillin G and 100 μg/mL streptomycin (Life Technologies, Carlsbad, CA). For the assay, the cells were harvested and resuspended with culture medium without Zeocin before plating at 8000 cells per well in 20 μL in 384-well black clear bottom cell culture plates (VWR, Radnor, PA). After 24 hour culture at 37° C. and 5% CO2, the cells were loaded with 20 μL/well of calcium dye (FLIPR Calcium 6 Assay Kit, Molecular Devices, San Jose, CA) diluted in loading buffer (1× Hank's Balanced Salt Solution (HBSS), 5 mM probenecid, 20 mM 4-(2-hydroxyethyl)-1-piperazineethanesulfonic acid (HEPES), pH 7.4, VWR, Radnor, PA) followed with 45 min incubation at 37° C. and 40 min. at r.t. in the dark. Cells were then treated with the addition of 10 uL/well test compounds with a range of increasing concentrations diluted in the assay buffer (1×HBSS, 20 mM HEPES, pH 7.4, VWR, Radnor, PA) with FLIPR Penta (Molecular Devices. San Jose, CA) and incubated for 30 min. at r.t. Ca^2+ release was measured with FLIPR Penta with 10 s basal fluorescence measurement, then 12.5 μL of 5× agonist Cortistatin-14 (Tocris, Minneapolis, MN) at final concentration corresponding to the EC80 were added followed with continued fluorescence signal monitoring for an additional 110 s. The base line adjusted (median of first 10 s base line) max value of the Relative Fluorescence Unit (RFU) was plotted against compound concentrations. Wells with no compound were served as the positive controls, and wells with high concentration of reference antagonist were used as negative controls. IC50 curves were globally fitted with 3- or 4-parameter Hill equation in a Genedata Screener (Genedata Basel, Switzerland).

[2] = target: T1, MRGPRX2; test: MRGPRX2 β-Arrestin assay; design: host or cells: PathHunter CHO-K1; settings: PathHunter CHO-K1 MRGPRX2 β-Arrestin cell line; agonist Cortistatin 14 0.25 μM
Excerpt: This assay measures compound inhibition of β-Arrestin recruitment, which is part of the G protein-independent pathway that results from the ligand-activated GPCR phosphorylation by specific GPCR kinases. The PathHunter CHO-K1 MRPGRX2 β-Arrestin Cell line stably expressing ProLink tagged MRGPRX2 and Enzyme Acceptor Tagged β-Arrestin was purchased from Eurofins DiscoverX, (Fremont, CA).
The cells were maintained in culture medium from the Europhins DiscoverX Cell Culture Kit-107 which includes FBS, hygromycin B and G418. For the assay, the cells were harvested and were resuspended with Cell Plating Reagent 2 (Eurofins DiscoverX). Cells were added 10000 cells in 25 μL/well to a 384-well black cell culture plate (Greiner VWR, Radnor, PA) which contained 125 nL/well of compound at a selected serially diluted concentration range or DMSO. The plate was incubated at 37° C. with 5% CO2 for 1 h. 2 μL/well of agonist Cortistatin 14 was diluted in Protein Dilution Buffer, (Eurofins DiscoverX) for a final concentration of 0.25 μM, was added and the plate was incubated at 37° C. with 5% CO2 for 90 min. 14 μL/well of Detection Reagent Mix (PathHunter Detection Kit, Eurofins DiscoverX) was added to the plates and further incubated for 1 h in the dark. Plates were read on the PHERAstar microplate reader (BMG Labtech Cary, NC) measuring luminescence 0.1 to 1 s per well. Data was normalized using DMSO only wells and wells with high concentration of reference antagonist as controls. Compound IC50 curves were globally fitted with 3- or 4-parameter Hill equation in a Genedata Screener (Genedata Basel, Switzerland).

[3] = target: T1, MRGPRX2; test: MRGPRX2 IP1 HTRF assay; design: host or cells: CHO-K1; settings: CHO-K1 cells stably expressing human MRGPRX2; IP1 accumulation; agonist Cortistatin 14 1 μM
Method: This assay measures compound inhibition of myo-Inositol 1 phosphate (IP1) accumulation in CHO-K1 cells. Chinese hamster ovary (CHO-K1) cells stably expressing human MRGPRX2 were purchased from GenScript (Piscataway, NJ).
For the HTRF IP1 determination, an IP-One GqKit (Perkin Elmer Cisbio, Waltham, MA), which includes all reagents and buffers in this protocol, was used. The cells were maintained in culture medium (Ham's F-12K) containing 10% (v/v) FBS, and 200 μg/mL Zeocin. For the assay, the cells were harvested and resuspended in culture medium with 2% FBS and without Zeocin, then were passed through a 40 μm filter. Cells were added at 20000 cells in a 5 μL/well to a 384-well white small volume cell culture plate (Greiner VWR, Radnor, PA) which contained 50 nL/well of test compound serially diluted at a selected concentration range in DMSO. 5 μL/well of prepared 2× Stimulation Buffer 2 was then added to plates and was incubated at 37° C. with 5% CO2 for 1 h. 5 μL/well of agonist Cortistatin 14 (Bio-TechneR&D Systems, Minneapolis, MN) in 1× Stimulation Buffer 2, for a 1 μM final concentration, was then added to plates and incubated at 37° C. with 5% CO2 for 1 h. 6 μL/well of 1:20 diluted Detection Reagent Mix (d2 and Cryptate) was added to the plates and incubated for 1 h in the dark. Plates were read on the PHERAstar microplate reader (BMG Labtech Cary, NC) to determine the HTRF ratio of the acceptor and donor emission signals. The IP1 concentrations were calculated from a standard curve following the IP-One GQ kit instructions. Wells with DMSO only and wells with high concentration of reference antagonist were used as controls for normalization. Compound IC50 curves were globally fitted with 3- or 4-parameter Hill equation in a Genedata Screener (Genedata Basel, Switzerland).

Measured: IC50

Cc1ncc2c(N[C@@H]3CCC[C@H](Nc4cc(C(F)(F)F)nc5ccc(Cl)cc45)C3)nccn12 [Example 10, (1S,3R)-N^1-(6-Chloro-2-(trifluoromethyl)quinolin-4-yl)-N^3-(3-methylimidazo[1,5-a]pyrazin-8-yl)cyclohexane-1,3-diamine]
0.1 to 100 nM: all assays above

Cn1cnc2ccnc(N[C@@H]3CCC[C@H](Nc4cc(C(F)(F)F)nc5ccc(F)cc45)C3)c21 [Example 14, (1S,3R)-N^1-(6-Fluoro-2-(trifluoromethyl)quinolin-4-yl)-N^3-(3-methyl-3H-imidazo[4,5-c]pyridin-4-yl)cyclohexane-1,3-diamine]
0.1 to 100 nM: all assays above

Cn1c(C#N)cnc1N[C@@H]1CCC[C@H](Nc2cc(C(F)(F)F)nc3ccc(Cl)cc23)C1 [Example 20, 2-(((1R,3S)-3-((6-Chloro-2-(trifluoromethyl)quinolin-4-yl)amino)cyclohexyl)amino)-1-methyl-1H-imidazole-5-carbonitrile]
0.1 to 100 nM: all assays above

Cn1cnc2ccnc(N[C@@H]3CCC[C@H](Nc4cc(C(F)(F)F)nc5ccc(Cl)cc45)C3)c21 [Example 4, (1S,3R)-N^1-(6-Chloro-2-(trifluoromethyl)quinolin-4-yl)-N^3-(3-methyl-3H-imidazo[4,5-c]pyridin-4-yl)cyclohexane-1,3-diamine]
0.1 to 100 nM: all assays above
